Values after ≈ are worked out from the molar mass of the structure shown. Values joined by “and” are separate entries in the source; they are usually repeats but may differ in a detail not shown here. Equal values may be shown once. Read-outs that look alike come from different tables or passages of the source. Bridge positions count the residues as written; N and C are the ends. Square brackets hold non-standard residues; d marks the D form. Peptide text beside a SMILES is read from it. * marks the point of attachment. ξ: configuration not given here. Octatrienoyl(2E,4E,6E) = C/C=C/C=C/C=C/C(=O)*; Hexadienoyl(2E,4E) = C/C=C/C=C/C(=O)*; ξPro(4ξ-Me) = CC1CNC(C(=O)O)C1; NMeA = CN[CH](C)C(=O)O
Assays:
[1] = tested on: Clostridium perfringens 81; assay: microbe, parasite or virus in culture; assay type: cell-based
[2] = tested on: Staphylococcus aureus V41; conditions: second test, Table 13, benzylpenicillin resistant
[3] = tested on: Peptococcus prevoti 1281; assay: MIC, agar-dilution method; assay type: cell-based
[4] = tested on: Staphylococcus epidermidis EPI1; conditions: second test, Table 13
[5] = tested on: Peptostreptococcus anaerobius 1428; assay: MIC, agar-dilution method; assay type: cell-based
[6] = tested on: Fusobacterium symbiosum 1470; assay: MIC, agar-dilution method; assay type: cell-based
[7] = tested on: Streptococcus sp. (Group D) X66; assay: Disc-plate sensitivity; assay type: cell-based; conditions: second test, Table 13; for zone of inhibition at 30 µg/disc / zone of inhibition at 300 µg/disc: Streptococcus
[8] = tested on: Streptococcus pyogenes (Group A) C203
[9] = tested on: Bacteroides melaninogenicus 2736; assay: MIC, agar-dilution method; assay type: cell-based
Source text: (§1) Antibiotic A54556 factors A, B, C, D, E, F, G, and H have been tested and found to be active against a number of anaerobic bacteria, as recorded in Table 14, which follows, the MIC values having been determined by the agar-dilution method.

[10] = tested on: Clostridium difficile 2994; assay: MIC, agar-dilution method; assay type: cell-based; conditions: Clostridioides difficile
Source text: as §1

[11] = tested on: Bacteroides fragilis 1936B; assay: MIC, agar-dilution method; assay type: cell-based
Source text: as §1

[12] = tested on: Bacteroides melaninogenicus 1856/28; assay: MIC, agar-dilution method; assay type: cell-based; conditions: Prevotella intermedia
Source text: as §1

[13] = tested on: Bacteroides fragilis 111; assay: MIC, agar-dilution method; assay type: cell-based
Source text: as §1

[14] = tested on: Fusobacterium necrophorum 6054A; assay: MIC, agar-dilution method; assay type: cell-based
Source text: as §1

[15] = tested on: Bacteroides thetaiotaomicron 1438; assay: MIC, agar-dilution method; assay type: cell-based
Source text: as §1

[16] = tested on: Propionibacterium acnes 79; assay: MIC, agar-dilution method; assay type: cell-based; conditions: Cutibacterium acnes
Source text: as §1

[17] = tested on: Clostridium septicum 1128; assay: MIC, agar-dilution method; assay type: cell-based
Source text: as §1

[18] = tested on: Peptostreptococcus intermedius 1264; assay: MIC, agar-dilution method; assay type: cell-based
Source text: as §1

[19] = tested on: Bacteroides fragilis 1877; assay: MIC, agar-dilution method; assay type: cell-based
Source text: as §1

[20] = tested on: Eubacterium aerofaciens 1235; assay: MIC, agar-dilution method; assay type: cell-based; conditions: Collinsella aerofaciens
Source text: as §1

[21] = Electrometric titration; assay type: physicochemical; conditions: 66 percent dimethylformamide in water
Source text: Antibiotic A54556 factor A is a tan, amorphous solid. […] As determined by electron impact and field desorption mass spectrometry, A54556 factor A has a molecular weight of 718.

[22] = tested on: Streptococcus pneumoniae Park I
[23] = tested on: S. pyogenes; assay: In vivo protection against experimental bacterial infection in mice; conditions: Streptococcus pyogenes, sc, two doses subcutaneously
Protocol: (§2) When two doses of test compound were administered subcutaneously to mice in illustrative infections, the activity is measured as an ED50 value [effective does in mg./kg. to protect fifty percent of the test animals: See Warren Wick et al., J. Bacteriol. 81, 233-235 (1961)]. The ED50 values for these antibiotic A54556 factors are recorded in Table 15, which follows.

[24] = tested on: Staphylococcus aureus 3055; conditions: benzylpenicillin-susceptible
[25] = tested on: Bacteroides corrodens 1874; assay: MIC, agar-dilution method; assay type: cell-based; conditions: Eikenella corrodens
[26] = tested on: experimental bacterial infections; assay: In vivo antimicrobial activity against experimental bacterial infections; conditions: mice, subcutaneously
Protocol: as §2

[27] = tested on: anaerobic bacteria; assay: Activity against anaerobic bacteria; assay type: cell-based; conditions: agar-dilution method
[28] = Solubility; conditions: for solubility in organic solvents: lower alcohols (methyl, ethyl, isopropyl, n-propyl, n-butyl), acetone, ethyl acetate, tetrahydrofuran, pyridine, dimethyl sulfoxide
[29] = tested on: Peptococcus asaccharolyticus 1302; assay: MIC, agar-dilution method; assay type: cell-based; conditions: Peptoniphilus asaccharolyticus
[30] = tested on: Bacteroides vulgatis 1211; assay: MIC, agar-dilution method; assay type: cell-based
[31] = tested on: Staphylococcus aureus 3130; conditions: Table 12, benzylpenicillin resistant, methicillin resistant
[32] = tested on: Staphylococcus aureus 3074; conditions: Table 12, benzylpenicillin resistant
[33] = tested on: Streptococcus sp. (Group D) 9960; assay: Disc-plate sensitivity; conditions: read-out: Zone diameter
[34] = read-out: Zone diameter, 30 mcg./disc
[35] = read-out: Zone diameter, 300 mcg./disc
[36] = 30 mcg./disc, second test, Table 13, listed as E
[37] = 300 mcg./disc, second test, Table 13
[38] = 30 mcg./disc, second test, Table 13
[39] = 300 mcg./disc, second test, Table 13, listed as C
[40] = 30 mcg./disc, second test, Table 13, listed as A

Structure (SMILES): C/C=C/C=C/C(=O)NC(Cc1ccccc1)C(=O)NC1COC(=O)C2CCCN2C(=O)C(C)NC(=O)C(C)N(C)C(=O)C2CCCN2C1=O (stereo not shown) [Factor E] ({Hexadienoyl(2E,4E)}-FSP[NMeA]AP; ester 2-C; configuration not given here)
- MIC [1]: > 128 µg/mL
- Zone diameter ([2]; 30 mcg./disc): 17 mm.
- Zone diameter ([2]; 30 mcg./disc, listed as E): 13 mm.
- Zone diameter ([2]; 300 mcg./disc): 27 mm. and 23 mm.
- MIC [3]: 128 µg/mL (≈ 189 µM)
- Zone diameter ([4]; 30 mcg./disc, listed as E): 13 mm. and 11 mm.
- Zone diameter ([4]; 300 mcg./disc): 25 mm. and 24 mm.
- MIC [5]: > 128 µg/mL
- MIC [6]: 128 µg/mL (≈ 189 µM)
- Zone diameter ([7]; 30 mcg./disc, listed as E): 21 mm.
- Zone diameter ([7]; 300 mcg./disc): 27 mm.
- zone of inhibition at 30 µg/disc [7, 34]: 22 mm
- zone of inhibition at 300 µg/disc [7, 35]: 28 mm
- Zone diameter [8, 36]: 20 mm. and 18 mm.
- Zone diameter [8, 37]: 30 mm. and 24 mm.
- MIC [9]: > 128 µg/mL
- MIC [10]: > 128 µg/mL
- MIC [11]: > 128 µg/mL
- MIC [12]: > 128 µg/mL
- MIC [13]: > 128 µg/mL
- MIC [14]: > 128 µg/mL
- MIC [15]: > 128 µg/mL
- MIC [16]: > 128 µg/mL
- MIC [17]: > 128 µg/mL
- MIC [18]: > 128 µg/mL
- MIC [19]: > 128 µg/mL
- MIC [20]: > 128 µg/mL
- titratable groups [21]: no titratable groups
- Zone diameter [22, 38]: 25 mm.
- Zone diameter [22, 36]: 22 mm.
- Zone diameter [22, 37]: 35 mm. and 28 mm.
- ED50 [23]: > 70 mg/kg
- Zone diameter [24, 38]: 17 mm.
- Zone diameter [24, 36]: 15 mm.
- Zone diameter [24, 37]: 23 mm.
- MIC [25]: > 128 µg/mL
- in vivo antimicrobial activity against experimental bacterial infections [26]: have shown in vivo antimicrobial activity
- activity against a number of anaerobic bacteria [27]: active
- solubility in organic solvents [28]: soluble
- MIC [29]: 64 µg/mL (≈ 94.3 µM)
- MIC [30]: > 128 µg/mL

Structure (SMILES): C/C=C/C=C/C(=O)NC(Cc1ccccc1)C(=O)NC1COC(=O)C2CCCN2C(=O)C(C)NC(=O)C(C)N(C)C(=O)C2CC(C)CN2C1=O (stereo not shown) [Factor C] ({Hexadienoyl(2E,4E)}-FS[ξPro(4ξ-Me)][NMeA]AP; ester 2-C; configuration not given here)
- MIC [1]: > 128 µg/mL
- Zone diameter ([2]; 30 mcg./disc): 24 mm.
- Zone diameter ([2]; 30 mcg./disc, listed as C): 21 mm.
- Zone diameter ([2]; 300 mcg./disc): 30 mm. and 25 mm.
- MIC [3]: > 128 µg/mL
- Zone diameter ([4]; 30 mcg./disc): 21 mm. and 23 mm.
- Zone diameter ([4]; 300 mcg./disc): 24 mm.
- Zone diameter ([4]; 300 mcg./disc, listed as C): 26 mm.
- MIC [5]: > 128 µg/mL
- MIC [6]: > 128 µg/mL
- Zone diameter ([7]; 30 mcg./disc): 25 mm.
- Zone diameter ([7]; 300 mcg./disc, listed as C): 35 mm.
- zone of inhibition at 30 µg/disc ([7]; 30 mcg./disc, read-out: Zone diameter): 24 mm
- zone of inhibition at 300 µg/disc ([7]; 300 mcg./disc, read-out: Zone diameter): 25 mm
- Zone diameter [8, 38]: 22 mm. and 28 mm.
- Zone diameter [8, 37]: 30 mm.
- Zone diameter [8, 39]: 33 mm.
- MIC [9]: > 128 µg/mL
- MIC [10]: > 128 µg/mL
- MIC [11]: > 128 µg/mL
- MIC [12]: > 128 µg/mL
- MIC [13]: > 128 µg/mL
- MIC [14]: > 128 µg/mL
- MIC [15]: > 128 µg/mL
- MIC [16]: 32 µg/mL (≈ 46.2 µM)
- MIC [17]: > 128 µg/mL
- MIC [18]: > 128 µg/mL
- MIC [19]: > 128 µg/mL
- MIC [20]: > 128 µg/mL
- titratable groups [21]: no titratable groups
- Zone diameter [22, 38]: 25 mm. and 30 mm.
- Zone diameter [22, 37]: 30 mm.
- Zone diameter [22, 39]: 35 mm.
- ED50 [23]: 11.1 mg/kg
- Zone diameter [24, 38]: 21 mm. and 23 mm.
- Zone diameter [24, 37]: 25 mm. and 31 mm.
- MIC [25]: > 128 µg/mL
- in vivo antimicrobial activity against experimental bacterial infections [26]: have shown in vivo antimicrobial activity
- activity against a number of anaerobic bacteria [27]: active
- solubility in organic solvents [28]: soluble
- MIC ([29]; agar-dilution, read-out: MIC): 16 µg/mL (≈ 23.1 µM)
- MIC [30]: > 128 µg/mL

Structure (SMILES): C/C=C/C=C/C=C/C(=O)NC(Cc1ccccc1)C(=O)NC1COC(=O)C2CCCN2C(=O)C(C)NC(=O)C(C)N(C)C(=O)C2CC(C)CN2C1=O (stereo not shown) [Factor A] ({Octatrienoyl(2E,4E,6E)}-FS[ξPro(4ξ-Me)][NMeA]AP; ester 2-C; configuration not given here)
- MIC [1]: > 128 µg/mL
- Zone diameter ([2]; 30 mcg./disc): 20 mm. and 22 mm.
- Zone diameter ([2]; 300 mcg./disc): 27 mm. and 33 mm.
- Zone diameter ([31]; 30 mcg./disc): 21.7 mm.
- Zone diameter ([31]; 300 mcg./disc): 25.5 mm.
- MIC [3]: > 128 µg/mL
- Zone diameter ([32]; 30 mcg./disc): 18.3 mm.
- Zone diameter ([32]; 300 mcg./disc): 20.9 mm.
- Zone diameter ([4]; 30 mcg./disc): 20 mm.
- Zone diameter ([4]; 300 mcg./disc): 22 mm. and 28 mm.
- MIC [5]: > 128 µg/mL
- MIC [6]: > 128 µg/mL
- Zone diameter ([7]; 30 mcg./disc, listed as A): 28 mm.
- Zone diameter ([7]; 300 mcg./disc): 29 mm.
- zone of inhibition at 30 µg/disc [7, 34]: 23 mm
- zone of inhibition at 300 µg/disc [7, 35]: 33 mm
- Zone diameter ([8]; 30 mcg./disc, Table 12): 24.0 mm.
- Zone diameter [8, 38]: 25 mm.
- Zone diameter [8, 40]: 20 mm.
- Zone diameter ([8]; 300 mcg./disc, Table 12): 30.0 mm.
- Zone diameter [8, 37]: 30 mm. and 32 mm.
- MIC [9]: > 128 µg/mL
- MIC [10]: > 128 µg/mL
- MIC [11]: > 128 µg/mL
- MIC [12]: > 128 µg/mL
- MIC [13]: > 128 µg/mL
- MIC [14]: > 128 µg/mL
- MIC [15]: > 128 µg/mL
- MIC [16]: > 128 µg/mL
- MIC [17]: > 128 µg/mL
- MIC [18]: > 128 µg/mL
- MIC [19]: > 128 µg/mL
- MIC [20]: > 128 µg/mL
- titratable groups [21]: no titratable groups
- Zone diameter ([22]; 30 mcg./disc, Table 12): 26.0 mm.
- Zone diameter [22, 40]: 18 mm. and 22 mm.
- Zone diameter ([22]; 300 mcg./disc, Table 12): 34.0 mm.
- Zone diameter [22, 37]: 33 mm. and 35 mm.
- ED50 [23]: > 70 mg/kg
- Zone diameter ([24]; 30 mcg./disc, Table 12): 19.2 mm.
- Zone diameter [24, 38]: 19 mm. and 21 mm.
- Zone diameter ([24]; 300 mcg./disc, Table 12): 24.3 mm.
- Zone diameter [24, 37]: 24 mm.
- Zone diameter ([24]; 300 mcg./disc, second test, Table 13, listed as A): 28 mm.
- MIC [25]: > 128 µg/mL
- in vivo antimicrobial activity against experimental bacterial infections [26]: have shown in vivo antimicrobial activity
- activity against a number of anaerobic bacteria [27]: active
- solubility in organic solvents [28]: soluble
- solubility in water ([28]; water): insoluble
- MIC [29]: > 128 µg/mL
- zone of inhibition at 30 µg/disc [33]: 22.4 mm
- zone of inhibition at 300 µg/disc [33]: 28 mm
- MIC [30]: > 128 µg/mL

— US4492650A, “A54556 Antibiotics and process for production thereof” (Eli Lilly and Company, priority 1982, dated 1985)
